# Data taken from patent publication US11167015B2, “Arginine and its use as a T cell modulator” (INSTITUTE FOR RESEARCH IN BIOMEDICINE, priority 2016, dated 2021).
# How the values were obtained:
# [1] = tested on: activated CD4+ T cells; experiment: IL-2 withdrawal assay and assessment of cell viability, CD4+ T cells; type: cell-based, human
# Description: (§1) Naïve CD4 T cells were activated with plate-bound CD3 and CD28 antibodies. 48 h after activation IL-2 was added to culture media (500 U ml^−1). After a further 3 days of culturing, cells were washed, counted and equal cell numbers were plated in medium devoid of IL-2. The withdrawal medium was no longer supplemented with e.g. L-arginine. Cell viability was assessed with annexin V.
# [2] = tested on: CD44hi CD4+ TCR transgenic T cells; experiment: Mouse experiment with dietary L-arginine: transferred HA TCR transgenic T cells in draining lymph nodes; type: in vivo, BALB/c mice; conditions: daily oral 1.5 mg/g body weight, 15 days after immunization with HA110-119 in CFA
# Description: 2×10^5 CD90.1^+ CD4^+ HA TCR-transgenic T cells, on a BALB/c background, were adoptively transferred in Wt CD90.2^4 BALB/c mice. The day after, host mice were immunized s.c. with influenza HA110-119 peptide (purchased from Anaspec) emulsified in CFA. L-Arg (1.5 g/kg body weight) or PBS, as control, was daily orally administrated, starting 1 day before T cell transfer and until the end of the experiment. Draining lymph nodes were analyzed on day 15 post immunization for the presence of transferred transgenic memory CD44^hi CD90.1^+ CD4^+ T cells. Sera were collected 30 min after oral L-arginine administration to mice and L-arginine and L-threonine concentrations in sera were measured on a MassTrak (Waters) instrument at the functional genomics center in Zurich. To determine intracellular L-arginine levels, activated T cells were isolated from draining lymph nodes 60 hours after activation and 30 min after the daily L-arginine administration. Metabolites were extracted with hot 70% ethanol and analyzed by HILIC LC-MS/MS.
# [3] = tested on: human CD4+ T cell clones; experiment: Survival experiment with CRISPR/Cas9 gene knockout T cell clones; type: cell-based
# Description: as §1
# Two to four short guide RNAs (sgRNAs) (Table 1) per gene were designed using the online tool provided by the Zhang laboratory (tools.genome-engineering.org). Oligonucleotide pairs with BsmBI-compatible overhangs were annealed and cloned into the lentiviral vector lentiCRISPR v2 (Addgene plasmid #52961) (Sanjana et al., 2014). […]
# To screen for clones with disrupted target genes, individual clones were lysed with sample buffer containing 80 mM Tris pH 6.8, 10.5% glycerol, 2% SDS and 0.00004% Bromophenol blue. Lysate of 100,000 cells was separated by SDS-PAGE followed, blotted onto PVDF membranes and analyzed with antibodies to target proteins, Baz1B (Abeam, ab50850), PSIP1 (Bethyl, A300-848A), DDX17 (Abeam, ab180190), PTPN6 (Santa Cruz, sc-287) or TSN (Sigma, HPA059561). […] To screen for clones with disrupted B2M, single cell clones were stained with an antibody to MHC-1 (eBioscience, HLA-ABC-FITC) and analyzed by flow cytometry.
structure (smiles),measurement,setting,value
N=C(N)NCCC[C@H](N)C(=O)O [L-arginine],time of addition after T cell activation at which most effective on survival,[1]; L-Arg 3 mM added at indicated time points,≤ 48 h
same,survival of activated CD4+ T cells in the absence of exogenous cytokines,"[1]; metabolites 3 mM, except for spermidine 0.1 mM, 5 days after IL-2 withdrawal",significantly increased
same,CD44hi CD4+ TCR transgenic T cells recovered in draining lymph nodes compared to control mice,[2],Three times more
same,"L-arginine's beneficial effect on T cell survival in BAZ1B, PSIP1 and TSN knockout clones","[3]; knockout of BAZ1B, PSIP1 and TSN",significantly reduced
same,effect of L-arginine on T cell survival in PTPN6 (Shp-1) or B2M knockout clones,[3]; knockout of PTPN6 (Shp-1) or B2M,did not alter
